Assay: in vivo
Settings: Sprague Dawley, rat; for AUC(0-t) / Cmax / Tmax: im
Protocol: An in vivo pharmacology study was completed in Sprague Dawley rats over 14 days, to determine the drug release kinetics of 50, 100, or 200 mg/kg doses of niclosamide administered as intramuscular injections of an aqueous dispersion of niclosamide nanoparticles.
Each animal received two 0.2 mL injections, one in each thigh, of one of the 25, 50, or 100 mg/kg of niclosamide dispersions for a total dose of 50, 100, or 200 mg/kg of niclosamide in each animal.
Blood samples were taken via tail vein bleed 1, 3, 6 and 24 hours post dose followed by bleeds at day 3, 4, 7 and 14. Niclosamide concentrations from the plasma samples were quantified utilising a previously validated liquid chromatography mass spectrometry (LCMS) method.

SMILES: O=C(Nc1ccc([N+](=O)[O-])cc1Cl)c1cc(Cl)ccc1O [niclosamide, 5-chloro-N-(2-chloro-4-nitrophenyl)-2-hydroxybenzamide]
- concentration at 24 h: 140000 ng/g
- AUC(0-t) (50 mg/kg): 24800 ng·h/mL
- Cmax (50 mg/kg): 1410 ng/mL
- Tmax (50 mg/kg): 2.5 h
- AUC(0-t) (100 mg/kg): 47500 ng·h/mL
- Cmax (100 mg/kg): 2040 ng/mL
- Tmax (100 mg/kg): 2 h
- AUC(0-t) (200 mg/kg): 58300 ng·h/mL
- Cmax (200 mg/kg): 3130 ng/mL
- Tmax (200 mg/kg): 3 h

From patent publication US20230404981A1, “[…] ACTIVE COMPOUND FORMULATIONS” (priority 2020, published 2023)
